Data: publication PMC8710297, “Identification of potent SENP1 inhibitors that inactivate SENP1/JAK2/STAT signaling pathway and overcome platinum drug resistance in ovarian cancer” (Clinical and Translational Medicine, 2021)

Assays:
IGROV1 CR cells [1] = experiment: Viability of IGROV1 CR cells treated with compound alone (SRB); format: cell-based; conditions: 48 hrs
Procedure: Cel l proliferation was determined by SR B assay. (B) Viability of IG ROV 1 CR cells treated by indicated compounds fo r 48 hrs. SRB assay wa s used to determine cell viabil ity. […]
1. Antibodies and re a ge nt s […]
[…] Momordin Ic ( A14773; Adooq Biosc ience) was dissolved in DMSO. Ursolic acid (A10961; Adooq Bioscience) wa s dissolved in DMSO. Collection of Mc natural compound an alogs were pu rch ase d fro m Sigma. Detailed proced ure to sy nt h e s ize UA derivatives was in c lu d ed in suppleme ntal material and methods.
2. Cell culture and resistance cell line establishment […]
were cultured at 37 °C in DM EM with 10% Fe ta l Bovine Serum (F BS). All th e cells were cultured at in a humidified incubator with 5% CO2 atmo s phe re.
3. In vitro SUMOylation and de‐SU MOylation assays
The SUMO yl ation re ac tions were performed according to th e manufacture’s instruction (BML‐UW8955‐ 0001; ENZO) and were described previously (1) . Briefly, 200 nM of purified HIS‐JAK 2 wa s mixed wit h reco mbinant SUMOs in reac ti on bu ffer (20 μl) containing Mg‐ AT P, SUMO E1, and SUMO E2, followed by incubation at 37°C fo r 60 min. […]
Cell viability was detected using Sulforhodamine B (SRB) assay as described previously (3).
Absorbance at 51 0 nm was detected using a SpectraMax Re a d e r (Molecular Devices) and an alyzed with SoftMax Analys is Software (Molecular Devices). […]

IGROV1 CR cells [2] = experiment: Drug synergy screening: SRB proliferation assay with 2 μM cisplatin; format: cell-based
Procedure: (A) Collection of Momordin Ic (Mc) natural compound analogues. […] Cell proliferation was determined by the sulforhodamine B (SRB) assay. […] IGROV1 CR cells were incubated with Mc at indicated concentrations for 48 h and then harvested for Western blot for indicated proteins. […] IGROV1 CR cells were incubated with UA and then treated as in C. […] Intensity of SUMOylated JAK2 was measured by Quantity One software. […] Recombinant His‐JAK2 was SUMOylated by in vitro SUMOylation assay, and then SUMOylated JAK2 proteins were incubated with or without recombinant GST‐SENP1 together with Mc for 3 h. […] In vitro assay was performed as in (F). […]

SMILES | toxicity to cells of compound alone (IGROV1 CR cells [1]) | IC50 of UA derivatives to inhibit resistant cells together with cisplatin (in words) (IGROV1 CR cells [2])
C[C@H]1[C@H](C)CC[C@]2(C(=O)OCCNC(=O)OC(C)(C)C)CC[C@]3(C)C(=CC[C@@H]4[C@@]5(C)CC[C@H](O)C(C)(C)[C@@H]5CC[C@]43C)[C@H]12 [UAMMC3] | higher toxicity | lower IC50
C[C@H]1[C@H](C)CC[C@]2(C(=O)OCC(=O)NCCO)CC[C@]3(C)C(=CC[C@@H]4[C@@]5(C)CC[C@H](O)C(C)(C)[C@@H]5CC[C@]43C)[C@H]12 [UAMMC5] | higher toxicity | lower IC50
